From PubChem BioAssay AID1963875 (Molecular Pharmacology Branch, DTP, NCI, 2024)

System: KRAS-mutant PDC complex spheroid viability
Test: Anticancer human tumor 186277-243-T-J2-PDC patient-derived colon adenocarcinoma cell line growth inhibition [KRAS2]
Settings: for viability, T/C: stronger effect = lower value
From the text: Multicellular complex tumor spheroid response to RAS pathway inhibitors in combination with a targeted agents in patient-derived cell lines with oncogenic KRAS variants from multiple cancer types
A high-throughput screen of multi-cell type tumor spheroids was designed to identify active combinations of targeted small molecules and KRAS pathway inhibitors. Complex spheroids include a stromal component modeled by human endothelial cells (HUVEC) and fibroblasts modeled by human mesenchymal stem cells (MSCs). The concentration ranges selected for each drug and investigational agent were based upon clinically achievable concentrations if the clinical Cmax of the agent was known.
Compounds. The drugs and investigational agents: BI-3406 (NSC825286), BAY-293 (NSC824723), batoprotafib (TNO155; NSC825523), sotorasib (AMG 510; NSC818433), MRTX1257 (NSC819558), elimusertib (BAY 1895344; NSC800525), molibresib (GSK525762; NSC774829), temuterkib (LY3214996; NSC803410), venetoclax (NSC766270), alisertib (NSC759677), olaparib (NSC753686), talazoparib (NSC767125), erdafitinib (NSC781556), ipatasertib (NSC767898), cabozantinib (NSC761068), nintedanib (NSC756659), abemaciclib (NSC768073), docetaxel (NSC628503), trametinib (NSC758246), and sapanisertib (NSC764658) were obtained from the National Cancer Institute (NCI) Developmental Therapeutics Program Chemical Repository. The FDA-approved anticancer drug set is available from the Developmental Therapeutics Program. […] The stock solutions were prepared in dimethyl sulfoxide (DMSO, Sigma-Aldrich, St. Louis, MO, cat. D2650) at 800-fold the tested concentration and stored at -70 degrees C prior to their use. All drugs and investigational agents were tested over a range starting from a high concentration at or near the clinical Cmax and decreasing in half-log increments. If the clinical Cmax for an agent had not been determined, the highest concentration tested was 10 microM.
Cell Culture. All cells were maintained in an incubator at 37 degrees C and 5% CO2 with 95% humidity. The PDC lines were cultured according to standard operating procedures established by the NCI PDMR (https://pdmr.cancer.gov/sops/default.htm). Briefly, all PDCs were thawed and cultured in Matrigel-coated flasks prepared with a working solution of 1X Ham's F-12 nutrient mix, without supplementation (Invitrogen, Waltham, MA, cat. 11765054), 100 U/mL penicillin-streptomycin (Invitrogen, cat. 15140122), and 2.5% Matrigel (Corning Inc., Corning, NY, cat. 354248) for the first three passages. All PDCs were cultured in complete DMEM/F-12 media containing advanced DMEM/F-12 (Invitrogen, cat. 12634028), 4.9% defined fetal bovine serum, heat inactivated (HyClone Laboratories Inc., Logan, UT, cat. SH30070.03HI), 389 ng/mL hydrocortisone (Sigma-Aldrich, cat. H4001), 9.7 ng/mL human EGF recombinant protein (Invitrogen, cat. PHG0313), 23.4 microg/mL adenine (Sigma-Aldrich, cat. A2786), 97.3 U/mL penicillin-streptomycin (Invitrogen, cat. 15140122), 1.9 mM L-glutamine (Invitrogen, cat. 25030081), and 9.7 microM Y-27632 dihydrochloride (Tocris Bioscience, Bristol, United Kingdom, cat. 1254). The PDCs were cultured in complete DMEM/F12 media without 9.7 microM Y-27632 dihydrochloride for at least two passages prior to the screen. The established cell line HOP-62 was cultured in RPMI 1640 medium, HEPES (Invitrogen, cat. 22400105) with 10% defined fetal bovine serum (HyClone Laboratories Inc., cat. SH30070.03) and 2 mM L-glutamine (Invitrogen, cat. 25030081). The pooled donor HUVEC were cultured in endothelial cell growth medium 2 (PromoCell, Heidelberg, Germany, cat. C-22011) and the hMSC were cultured in mesenchymal stem cell growth medium 2 (PromoCell, cat. C-28009). For all experiments, HUVEC and hMSC were used at passages </=5, while the malignant cell lines were used at passages </=15. […]

[1] = curve of first compound, second compound 0.1 µM
[2] = curve of first compound, second compound 0.316 µM
[3] = curve of first compound, second compound 1 µM
[4] = curve of first compound, second compound 3.16 µM
[5] = curve of first compound, second compound 10 µM
[6] = second compound 0.1 µM, first compound 0.000316 µM
[7] = second compound 0.1 µM, first compound 0.001 µM
[8] = second compound 0.1 µM, first compound 0.00316 µM
[9] = second compound 0.1 µM, first compound 0.01 µM
[10] = second compound 0.1 µM, first compound 0.0316 µM
[11] = second compound 0.1 µM, first compound 0.1 µM
[12] = second compound 0.316 µM, first compound 0.000316 µM
[13] = second compound 0.316 µM, first compound 0.001 µM
[14] = second compound 0.316 µM, first compound 0.00316 µM
[15] = second compound 0.316 µM, first compound 0.01 µM
[16] = second compound 0.316 µM, first compound 0.0316 µM
[17] = second compound 0.316 µM, first compound 0.1 µM
[18] = second compound 1 µM, first compound 0.000316 µM
[19] = second compound 1 µM, first compound 0.001 µM
[20] = second compound 1 µM, first compound 0.00316 µM
[21] = second compound 1 µM, first compound 0.01 µM
[22] = second compound 1 µM, first compound 0.0316 µM
[23] = second compound 1 µM, first compound 0.1 µM
[24] = second compound 3.16 µM, first compound 0.000316 µM
[25] = second compound 3.16 µM, first compound 0.001 µM
[26] = second compound 3.16 µM, first compound 0.01 µM
[27] = second compound 3.16 µM, first compound 0.0316 µM
[28] = second compound 3.16 µM, first compound 0.1 µM
[29] = second compound 10 µM, first compound 0.000316 µM
[30] = second compound 10 µM, first compound 0.001 µM
[31] = second compound 10 µM, first compound 0.00316 µM
[32] = second compound 10 µM, first compound 0.01 µM
[33] = second compound 10 µM, first compound 0.0316 µM
[34] = second compound 10 µM, first compound 0.1 µM
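For viability, T/C in this document: viability read after seven days of compound exposure; 100% = DMSO vehicle-treated spheroids so lower means less viable.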

SMILES | IC50 [1] [nM] | IC50 [2] [nM] | IC50 [3] [nM] | IC50 [4] [nM] | IC50 [5] [nM] | viability, T/C [6] [%] | viability, T/C [7] [%] | viability, T/C [8] [%] | viability, T/C [9] [%] | viability, T/C [10] [%] | viability, T/C [11] [%] | viability, T/C [12] [%] | viability, T/C [16] [%] | viability, T/C [17] [%] | viability, T/C [22] [%] | viability, T/C [23] [%] | viability, T/C [27] [%] | viability, T/C [28] [%] | viability, T/C [33] [%] | viability, T/C [34] [%] | further results
Cn1ncnc1[C@H]1c2n[nH]c(=O)c3cc(F)cc(c23)N[C@@H]1c1ccc(F)cc1 + C=CC(=O)N1CCN(c2nc(=O)n(-c3c(C)ccnc3C(C)C)c3nc(-c4c(O)cccc4F)c(F)cc23)C(C)C1 | > 100 | > 100 | > 100 | > 100 | 3.32 | 98.5 | 97.1 | 111 | 105 | 95 | 75.8 | 106 | 87.8 | 79 | 85.2 | 67.2 | 61.6 | 50.6 | 32.9 | 24.1 | viability, T/C [13]: 114%; viability, T/C [14]: 105%; viability, T/C [15]: 103%; viability, T/C [18]: 106%; viability, T/C [19]: 105%; viability, T/C [20]: 108%; viability, T/C [21]: 98.7%; viability, T/C [24]: 99.6%; viability, T/C [25]: 101%; viability, T/C [26]: 76.5%; viability, T/C [29]: 45%; viability, T/C [30]: 60.2%; viability, T/C [31]: 51%; viability, T/C [32]: 28.3%
O=C(c1cc(Cc2n[nH]c(=O)c3ccccc23)ccc1F)N1CCN(C(=O)C2CC2)CC1 + C=CC(=O)N1CCN(c2nc(=O)n(-c3c(C)ccnc3C(C)C)c3nc(-c4c(O)cccc4F)c(F)cc23)C(C)C1 | 2020 | 4920 | 6630 | 5740 | 1400 | – | – | – | – | 108 | 111 | – | 105 | 101 | 96.5 | 96.8 | 95.7 | 106 | 78 | 82.6 | viability, T/C (second compound 0.1 µM, first compound 0.316 µM): 98.6%; viability, T/C (second compound 0.1 µM, first compound 1 µM): 78%; viability, T/C (second compound 0.1 µM, first compound 3.16 µM): 31.4%; viability, T/C (second compound 0.1 µM, first compound 10 µM): 22.7%; viability, T/C (second compound 0.316 µM, first compound 0.316 µM): 107%; viability, T/C (second compound 0.316 µM, first compound 1 µM): 96.6%; viability, T/C (second compound 0.316 µM, first compound 3.16 µM): 60.6%; viability, T/C (second compound 0.316 µM, first compound 10 µM): 33.1%; viability, T/C (second compound 1 µM, first compound 0.316 µM): 103%; viability, T/C (second compound 1 µM, first compound 1 µM): 107%; viability, T/C (second compound 1 µM, first compound 3.16 µM): 74.6%; viability, T/C (second compound 1 µM, first compound 10 µM): 36.4%; viability, T/C (second compound 3.16 µM, first compound 0.316 µM): 101%; viability, T/C (second compound 3.16 µM, first compound 1 µM): 89.1%; viability, T/C (second compound 3.16 µM, first compound 3.16 µM): 67%; viability, T/C (second compound 3.16 µM, first compound 10 µM): 34.6%; viability, T/C (second compound 10 µM, first compound 0.316 µM): 68.8%; viability, T/C (second compound 10 µM, first compound 1 µM): 51.4%; viability, T/C (second compound 10 µM, first compound 3.16 µM): 40.2%; viability, T/C (second compound 10 µM, first compound 10 µM): 17.9%
COc1cc2nc(C)nc(NC(C)c3cc(N)cc(C(F)(F)F)c3)c2cc1OC1CCOC1 (configuration not stated) | – | – | – | – | – | – | – | – | – | – | – | – | – | – | – | – | – | – | – | – | viability, T/C (compound 1 µM): 101% [middle of 17 runs]; IC50 (compound alone, run of 07/12/2021): > 10000 nM; IC50 (compound alone, run of 07/19/2021): > 10000 nM
CC(C)n1nc(-c2ccc3oc(N)nc3c2)c2c(N)ncnc21 + CC1OCC2(CCN(c3cnc(Sc4ccnc(N)c4Cl)c(N)n3)CC2)C1N | 11.9 | 12.7 | 8.7 | 4.98 | 1.26 | 107 | 101 | 85.8 | 52.1 | 30 | 16.1 | 113 | 30.6 | 15.3 | 25.3 | 12.9 | 22.6 | 7.43 | 13.8 | 5.7 | viability, T/C [13]: 100%; viability, T/C [14]: 76.8%; viability, T/C [15]: 57%; viability, T/C [18]: 103%; viability, T/C [19]: 89.7%; viability, T/C [20]: 67.5%; viability, T/C [21]: 49.9%; viability, T/C [24]: 83.8%; viability, T/C [25]: 73.4%; viability, T/C (second compound 3.16 µM, first compound 0.00316 µM): 55.9%; viability, T/C [26]: 39.5%; viability, T/C [29]: 57.4%; viability, T/C [30]: 58.8%; viability, T/C [31]: 33.7%; viability, T/C [32]: 25.3%
